Counter-ions that a name gives are not always drawn. Like-named read-outs stand apart in the source and are kept apart here.
Experiments:
[1] = tested on: virus influenza A; test: microbe, parasite or virus in culture; assay type: cell-based; set-up: dose or concentration left out as unconfirmed; details: for inhibition: Influenza A virus, MDCK, dilution of virus 10^-3, read-out: % of inhibition of influenza A virus reproduction
[2] = in vitro; details: human
[3] = tested on: virus of hepatitis C strain JFH-1 (genotype 2a); test: microbe, parasite or virus in culture; assay type: cell-based; details: for Therapeutic index SI50 = TC50/IC50: HCV; for IC50: Hepatitis C virus, Huh-7.5.1, Huh7.5.1 cells, HCV JFH-1, 72 hours incubation, read-out: IC50 (IC50^HCV, antiviral activity)
[4] = tested on: influenza virus; details: cited from earlier work
[5] = tested on: some other cellular lines; details: cited from earlier work

| SMILES | inhibition [1] [%] | also measured |
| --- | --- | --- |
| CCOC(=O)c1c(CSc2ccccc2)n(C)c2cc(C#N)c(O)c(CN3CCCC(CO)C3)c12 (centres unmarked) [1.1(11)] | < 50 |  |
| CCOC(=O)c1c(CSc2ccccc2)n(C)c2cc(C#N)c(O)c(CN(C)C)c12 [1.1(15)] |  | CC50 [2]: > 100 µM; Therapeutic index SI50 = TC50/IC50 [3]: >4; IC50 [3]: 28 µM |
| CCOC(=O)c1c(CSc2ccccc2)n(C)c2cc(-c3cn[nH]c3)c(O)c(CN(C)C)c12 [1.1.1(2)] | 63 |  |
| CCOC(=O)c1c(CSc2ccccc2)n(C)c2cc(-c3cc4ccccc4o3)c(O)c(CN(C)C)c12 [1.1.1(3)] | 52 |  |
| CCOC(=O)c1c(CSc2ccccc2)n(C)c2cc(-c3cc4ccccc4[nH]3)c(O)c(CN(C)C)c12 [1.1.1(4)] | 66 |  |
| CCOC(=O)c1c(CSc2ccccc2)n(C)c2cc(-c3cc4cc(OC)ccc4[nH]3)c(O)c(CN(C)C)c12 [1.1.1(5)] | 60 |  |
| CCOC(=O)c1c(CSc2ccccc2)n(C)c2cc(-c3ccc4[nH]ncc4c3)c(O)c(CN(C)C)c12 [1.1.1(6)] | 58 |  |
| CCOC(=O)c1c(CSc2ccccc2)n(C)c2cc(-c3cncnc3)c(O)c(CN(C)C)c12 [1.1.1(7), ethyl 4-((dimethylamino)methyl)-5-hydroxy-1-methyl-2-(phenylthiomethyl)-6-(pyrimidin-5-yl)-1H-indole-3-carboxylate] | 62 |  |
| CCOC(=O)c1c(CSc2ccccc2)n(C)c2cc(-c3cncc4ccccc34)c(O)c(CN(C)C)c12 [1.1.1(9)] | 88 |  |
| CCOC(=O)c1c(CO)n(C)c2cc(-c3cccnc3)c(O)c(CN(C)C)c12.Cl.Cl [1.1.2(35)] |  | CC50 [2]: > 100 µM; Therapeutic index SI50 = TC50/IC50 [3]: >16; IC50 [3]: 6 µM |
| CCOC(=O)c1c(C[S+]([O-])c2ccccc2)n(C)c2cc(-c3cccnc3)c(O)c(CN(C)C)c12.Cl.Cl (centres unmarked) [1.1.2(42)] |  | CC50 [2]: > 100 µM; Therapeutic index SI50 = TC50/IC50 [3]: >5; IC50 [3]: 18 µM |
| CCOC(=O)c1c(CN(C)C)n(C)c2cc(-c3ccccc3)c(O)c(Cn3ccnc3)c12.Cl.Cl [1.1.3(7)] |  | CC50 [2]: > 100 µM; Therapeutic index SI50 = TC50/IC50 [3]: >1.4; IC50 [3]: 72 µM |
| CCOC(=O)c1c(CN(C)C)n(C)c2cc(-c3cccnc3)c(O)c(CN3CCCC3)c12.Cl.Cl.Cl [1.1.5(2c), ethyl 2-((dimethylamino)methyl)-5-hydroxy-1-methyl-6-(pyridin-3-yl)-4-(pyrrolidin-1-ylmethyl)-1H-indole-3-carboxylate hydrochloride] |  | CC50 [2]: 75 µM; Therapeutic index SI50 = TC50/IC50 [3]: 11; IC50 [3]: 7 µM |
| CCOC(=O)c1c(CN2CCCC2)n(C)c2cc(-c3cccnc3)c(O)c(CN(C)C)c12 [1.1.5(5c), ethyl 4-((dimethylamino)methyl)-5-hydroxy-1-methyl-6-(pyridin-3-yl)-2-(pyrrolidin-1-ylmethyl)-1H-indole-3-carboxylate hydrochloride] |  | CC50 [2]: > 100 µM; Therapeutic index SI50 = TC50/IC50 [3]: >20; IC50 [3]: < 5 µM |
| CCOC(=O)c1c(CN2CCN(C)CC2)n(-c2ccccc2)c2ccc3c(c12)CN(C)CO3 [1.2(1)] | < 50 |  |
| Br.Br.CCOC(=O)c1c(CN2CCN(C)CC2)n(-c2ccccc2)c2ccc3c(c12)CN(C)CO3 [1.2(2)] |  | % of inhibition of influenza A virus reproduction ([1]; dilution of virus 10^-3): <50% |
| CCOC(=O)c1c(CN2CCN(C)CC2)n(Cc2ccccc2)c2cc(Br)c3c(c12)CN(C)CO3 [1.2(6)] | 92 |  |
| CCOC(=O)c1c(CN2CCCCC2)n(Cc2ccccc2)c2cc(Br)c3c(c12)CN(C)CO3 [1.2(7)] | 100 |  |
| CCOC(=O)c1c(CN2CCN(c3ccccc3)CC2)n(C2CCCCC2)c2cc(Br)c3c(c12)CN(C)CO3 [1.2(9)] | 62 |  |
| CCOC(=O)c1c(CN2CCCC2)n(C2CCCCC2)c2cc(Br)c3c(c12)CN(C)CO3 [1.2(10)] | 81 |  |
| CCOC(=O)c1c(CN(C)C)n(-c2ccccc2)c2ccc3c(c12)CN(C)CO3 [1.2(11)] | 77 |  |
| CCOC(=O)c1c(CN2CCC(C)CC2)n(Cc2ccccc2)c2cc(Br)c3c(c12)CN(C)CO3 [1.2(12)] | 85 |  |

| SMILES | inhibition [1] [%] | also measured |
| --- | --- | --- |
| CCOC(=O)c1c(CN2CCCCC2C)n(Cc2ccccc2)c2cc(Br)c3c(c12)CN(C)CO3 (centres unmarked) [1.2(13)] | 77 |  |
| CCOC(=O)c1c(CN2CCN(CCO)CC2)n(C)c2cc(Br)c3c(c12)CN(C)CO3 [1.2(14)] | 95 |  |
| CCOC(=O)c1c(CN(C)CCO)n(C)c2cc(Br)c3c(c12)CN(C)CO3 [1.2(16)] | 90 |  |
| CCOC(=O)c1c(CNc2ccncc2)n(C)c2cc(Br)c3c(c12)CN(C)CO3 [1.2(18)] | 100 |  |
| CCOC(=O)c1c(Cn2ccnc2C)n(C)c2cc(Br)c3c(c12)CN(C)CO3 [1.2(19)] | 88 |  |
| CCOC(=O)c1c(CNc2ccc(C)cc2)n(C)c2cc(Br)c3c(c12)CN(C)CO3 [1.2(26)] | 100 |  |
| CCOC(=O)c1c(CSc2ccccc2)n(C)c2cc(C#N)c3c(c12)CN(C)CO3 [1.2(27)] | < 50 |  |
| CCOC(=O)c1c(CN(C)C)n(C)c2cc(C#N)c3c(c12)CN(C)CO3 [1.2(29)] |  | CC50 [2]: > 100 µM; IC50 [3]: > 100 µM |
| CCOC(=O)c1c(CNc2ccccc2)n(C)c2cc(C#N)c3c(c12)CN(C)CO3 [1.2(30)] | < 50 |  |
| CCOC(=O)c1c(CSc2ccccc2)n(C)c2cc(Br)c3c(c12)CN(CC)CO3 [1.2(31)] | 100 |  |
| CCOC(=O)c1c(CSc2nc3ccccc3[nH]2)n(-c2ccccc2)c2cc(Br)c3c(c12)CN(C)CO3 [1.2(32)] | 65 |  |
| CCCCN1COc2c(Br)cc3c(c2C1)c(C(=O)OCC)c(CSc1ccccc1)n3C [1.2(33)] | 95 |  |
| CCOC(=O)c1c(CSc2nc3ccccc3s2)n(-c2ccccc2)c2cc(Br)c3c(c12)CN(C)CO3 [1.2(34)] | < 50 |  |
| CCOC(=O)c1c(CSc2ccccc2)n(C)c2cc(Br)c3c(c12)CN(Cc1ccccc1)CO3 [1.2(35)] | 98 |  |
| CCOC(=O)c1c(CSc2cc(C)ccc2C#N)n(C)c2cc(Br)c3c(c12)CN(C)CO3 [1.2(36)] | < 50 |  |
| CCCCC1Oc2c(Br)cc3c(c2CN1C)c(C(=O)OCC)c(CSc1ccccc1)n3C (centres unmarked) [1.2(37)] | 77 |  |
| CCOC(=O)c1c(CSc2ccccc2)n(C)c2cc(Br)c3c(c12)CN(C)CO3 [1.2(38)] | 100 |  |
| CCOC(=O)c1c(CSc2ccccc2)n(C)c2cc(Br)c3c(c12)CN(C)C(c1ccccc1)O3 (centres unmarked) [1.2(39)] | 62 |  |
| CCOC(=O)c1c(CSc2ccccc2)n(C2CCCCC2)c2cc(Br)c3c(c12)CN(C)CO3 [1.2(41)] | 89 |  |
| CCOC(=O)c1c(CS(=O)(=O)c2ccccc2)n(C)c2cc(Br)c3c(c12)CN(C)CO3 [1.2(42)] | 88 |  |
| CCOC(=O)c1c(CS(=O)(=O)c2ccc(Cl)cc2)n(C)c2cc(Br)c3c(c12)CN(C)CO3 [1.2(43)] | 77 |  |
| CCOC(=O)c1c(CNc2ccccc2)n(C)c2cc(Br)c3c(c12)CN(C)CO3 [1.2(44)] | 100 |  |

| SMILES | inhibition [1] [%] | also measured |
| --- | --- | --- |
| CCOC(=O)c1c(CNc2ccc(Cl)cc2)n(C)c2cc(Br)c3c(c12)CN(C)CO3 [1.2(45)] | 100 |  |
| COC(=O)c1c(CSc2ccccc2)n(C)c2cc(Br)c3c(c12)CN(C)CO3 [1.2(46)] | 100 |  |
| CCOC(=O)c1c(CSc2cccs2)n(C)c2cc(Br)c3c(c12)CN(C)CO3 [1.2(47)] | 100 |  |
| CN1COc2c(Br)cc3c(c2C1)c(C(=O)OC1CCCCC1)c(CNc1ccccc1)n3C [1.2(48)] | 76 |  |
| CCOC(=O)c1c(CSc2ccc(Cl)cc2)n(C)c2cc(Br)c3c(c12)CN(C)CO3 [1.2(49)] | 90 |  |
| CCOC(=O)c1c(CSc2ccccc2)n(C)c2cc(-c3ccccc3)c(O)c(CN(C)C)c12 [1.2.1(1)] | 96 |  |
| CCOC(=O)c1c(CSc2ccccc2)n(C)c2cc(-c3cccc(O)c3)c(O)c(CN(C)C)c12 [1.2.1(2)] | 51 |  |
| CCOC(=O)c1c(CSc2ccccc2)n(C)c2cc(-c3cccc(N(C)C)c3)c(O)c(CN(C)C)c12 [1.2.1(3)] | 77 |  |
| CCOC(=O)c1c(CSc2ccccc2)n(C)c2cc(-c3cccnc3)c(O)c(CN(C)C)c12 [1.2.1(5)] | 100 |  |
| CCOC(=O)c1c(CSc2ccccc2)n(C)c2cc(-c3ccncc3)c(O)c(CN(C)C)c12 [1.2.1(6)] | 100 |  |
| CCOC(=O)c1c(CSc2ccccc2)n(C)c2cc(-c3ccc(OC)nc3)c(O)c(CN(C)C)c12 [1.2.1(8)] | 81 |  |
| CCOC(=O)c1c(CSc2ccccc2)n(C)c2cc(-c3cccnc3)c(O)c(CN3CCCC(CO)C3)c12 (centres unmarked) [1.2.1(23)] | 95 |  |
| CCOC(=O)c1c(COc2ccccc2)n(C)c2cc(-c3cccnc3)c(O)c(CN(C)C)c12 [1.2.1(29)] | 88 |  |
| CCOC(=O)c1c(CSc2ccccc2)n(C)c2cc(-c3ccncc3)c3c(c12)CN(C)CO3 [1.2.2(5)] | 100 |  |
| CCOC(=O)c1c(CSc2ccccc2)n(C)c2cc(-c3cncnc3)c3c(c12)CN(C)CO3 [1.2.2(7)] | 88 |  |
| CCOC(=O)c1c(CSc2ccccc2)n(C)c2cc(-c3cccnc3)c3c(c12)CN(C)CO3 [1.2.2(8)] | 100 |  |
| CCOC(=O)c1c(CNc2ccccc2)n(C)c2cc(-c3ccccc3)c3c(c12)CN(C)CO3 [1.2.3(7)] | 90 |  |
| CCOC(=O)c1c(CNc2ccccc2)n(C)c2cc(-c3ccncc3)c3c(c12)CN(C)CO3 [1.2.3(8)] | 100 |  |
| CCOC(=O)c1c(CN(C)C)n(C)c2cc(-c3cccnc3)c3c(c12)CN(C)CO3 [1.2.5(1c), hydrochloride] |  | CC50 [2]: 78 µM; Therapeutic index SI50 = TC50/IC50 [3]: 13; IC50 ([3]; GETYPE2A): 6 µM |
| CCOC(=O)c1c(CSc2ccccc2)n(C)c2cc(Br)c(O)c(CN(C)C)c12.Cl [Arbidol, ethyl 6-bromo-4-[(dimethylamino)methyl]-5-hydroxy-1-methyl-2-(phenylthiomethyl)-1H-indole-3-carboxylate hydrochloride] |  | IC50 [4]: 23.2 MκΓ/ml; TC50 [5]: 15 to 25 µg/mL |

From patent publication US8329689B2 (priority 2006, dated 2012)
